A word on the IC50: it is the midpoint of a concentration-inhibition curve.

For 1 compound, IC50 results are on record in PMC11402452, “Etomoxir-carnitine, a novel pharmaco-metabolite of etomoxir, inhibits phospholipases A2 and mitochondrial respiration” (Journal of Lipid Research, 2024).

In this experiment the target is T1, calcium-independent phospholipase A2γ (iPLA2γ) (Homo sapiens, UniProt Q9NP80).
T1 construct: gene PNPLA8; 63 kDa recombinant human peroxisomal isoform, N-terminal (His)6 tag
T1 sequence (Q9NP80 221-782 limits assumed): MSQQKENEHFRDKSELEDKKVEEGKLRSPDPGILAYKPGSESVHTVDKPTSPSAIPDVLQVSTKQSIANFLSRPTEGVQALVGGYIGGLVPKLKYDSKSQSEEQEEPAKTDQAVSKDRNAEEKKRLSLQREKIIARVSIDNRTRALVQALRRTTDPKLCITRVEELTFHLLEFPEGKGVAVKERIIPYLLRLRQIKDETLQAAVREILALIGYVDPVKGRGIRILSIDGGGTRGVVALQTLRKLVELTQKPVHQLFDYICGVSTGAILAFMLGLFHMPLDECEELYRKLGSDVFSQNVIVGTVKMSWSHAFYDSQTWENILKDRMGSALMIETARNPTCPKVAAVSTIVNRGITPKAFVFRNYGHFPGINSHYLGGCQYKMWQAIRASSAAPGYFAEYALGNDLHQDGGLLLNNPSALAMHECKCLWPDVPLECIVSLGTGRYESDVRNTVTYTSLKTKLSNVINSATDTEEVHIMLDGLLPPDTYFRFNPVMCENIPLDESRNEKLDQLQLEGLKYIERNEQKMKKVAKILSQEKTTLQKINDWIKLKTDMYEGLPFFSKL
Description: purified recombinant PLA2 activity assay (PAPC/diolein SUVs), LPC production by ESI-MS. It is filed as biochemical.

For the compound `C[N+](C)(C)C[C@@H](CC(=O)O)OC(=O)[C@@]1(CCCCCCOc2ccc(Cl)cc2)CO1` [ETO-carnitine, (R)-3-carboxy-2-(((R)-2-(6-(4-chlorophenoxy)hexyl)oxirane-2-carbonyl)oxy)-N,N,N-trimethylpropan-1-aminium], the IC50 was ~1.75 nM.
